Converted amounts (≈) assume the structure as drawn.

For this data set the following is noted: buffer; pH 7.4; 200.0 µM.
As to `Cc1c(C)n(Cc2ccccc2)c2ncnc(Cl)c12`, the kinetic solubility amounted to 0.3 µg/mL (≈ 1.1 µM).
For `COc1cccc2cc(C(=O)NCc3ccc(C)cc3)c(=O)oc12` the value was less than 0.7 µg/mL.
For `O=C(CCSc1ccc(Cl)cc1)NCc1ccccn1` the value was 40.8 µg/mL (≈ 133 µM); for `NC(=O)c1cccnc1OCC(F)(F)F`, greater than 33 µg/mL; for `O=C(CSc1nnc2ccccn12)Nc1ccc(N2CCOCC2)cc1`, greater than 55.4 µg/mL.
The same measure for `COc1ccccc1NC(=O)CN1CCOCC1`: greater than 37.5 µg/mL; for `Fc1cccc(Cl)c1/C=C/c1cnc2ccccc2n1`: less than 0.3 µg/mL; for `Cc1cc(C)n(CC(=O)NC2CCCCC2C)c(=O)c1C#N` (stereo not given): 16.7 µg/mL (≈ 55.4 µM).
The molecule `O=Cc1c(NCCc2cccc(F)c2)c2ccccc2[nH]c1=O` returned a kinetic solubility of 9.3 µg/mL (≈ 30 µM).
Molecule `COc1ccc(/C=C/C(=O)N2CCN(c3ccccn3)CC2)cc1` gave a kinetic solubility of 13.9 µg/mL (≈ 43 µM).
The molecule `O=C(c1cccnc1)N1N=C2CCCCCC2C1(O)C(F)(F)F` (stereo not given) gave a kinetic solubility greater than 49.1 µg/mL.
As to `Cl.Oc1cccc(Nc2ncnc3c2oc2ccccc23)c1`, the solubility (kinetic) amounted to 2.3 µg/mL.
With `COc1ccc(N2C(=O)CSC2c2ccc(F)cc2)cc1` (stereo not given), the solubility (kinetic) was greater than 45.5 µg/mL.
As for `Cc1ccccc1OCC(=O)Nc1cccc(Cl)c1C`, the kinetic solubility is less than 0.6 µg/mL.
Molecule `CC(=O)c1sc(NC(=O)c2ccc3c(c2)OCO3)nc1C` showed a solubility (kinetic) of 0.9 µg/mL (≈ 2.96 µM).
In the case of `Cn1c(=O)c2nc(-c3ccccc3)c(-c3ccccc3)nc2n(C)c1=O`, the solubility (kinetic) came to 0.9 µg/mL (≈ 2.61 µM).
For `O=C(COC(=O)COc1cccc(Br)c1)NCc1ccc2c(c1)OCO2`, the kinetic solubility came out at 32.6 µg/mL (≈ 77.2 µM).
Take `N/C(=N\OC(=O)CSc1ccccc1)c1ccncc1`: the solubility (kinetic) came to 37.6 µg/mL (≈ 131 µM).
The molecule `CCN1C(=O)C(C(=O)c2ccccc2)SC1=S` (stereo not given) came in with a kinetic solubility of 38.4 µg/mL (≈ 145 µM).
`O=C(Nc1ccccc1C(=O)N1CCCCC1)c1cccs1` displayed a solubility (kinetic) greater than 47.2 µg/mL.
The molecule `O=c1cc(COc2ccc(Cl)c(Cl)c2)nc2sccn12` yielded a solubility (kinetic) of 1.1 µg/mL (≈ 3.36 µM).
As for `O=C(O)CCC(=O)NNC(=O)c1ccc([N+](=O)[O-])cc1`, the kinetic solubility is greater than 42.2 µg/mL.
As to `Cn1cccc1C(=O)OCC(=O)N1CC(=O)Nc2ccccc21`, the kinetic solubility turned out to be 45.1 µg/mL (≈ 144 µM).
Molecule `Cc1ccc(C(=O)N2C(=O)C(c3ccccc3)Oc3ccccc32)cc1` (stereo not given) gave a kinetic solubility of less than 0.7 µg/mL.
As for `CCOc1c(C)cc(S(=O)(=O)NCc2cccnc2)c(C)c1C`, the solubility (kinetic) is 45.2 µg/mL (≈ 135 µM).
For the molecule `Cc1cnc(NC(=O)c2cc(S(=O)(=O)N(C)C)ccc2N2CCCC2)s1`, the kinetic solubility was determined as 4.7 µg/mL (≈ 11.9 µM).
Molecule `CCC(NC(=O)c1cncc(Br)c1)c1ccccc1` (stereo not given) displayed a kinetic solubility greater than 47.9 µg/mL.
Turning to `N[C@@H](Cc1ccc(O)cc1)C(=O)Nc1ccc2ccccc2c1`, the kinetic solubility is greater than 46 µg/mL.
On to `Cc1ccc(C)c(NC(=O)N2CCc3ccccc3C2)c1`, for which the solubility (kinetic) turned out to be 18.9 µg/mL (≈ 67.4 µM).
Consider `CCCN1CCN(C(=S)Nc2sc(CC)cc2C(=O)OC)CC1`, for which the solubility (kinetic) amounted to 0.6 µg/mL (≈ 1.69 µM).
In the case of `Cc1ccc(F)cc1NC(=O)CN1CCN(c2ccccn2)CC1`, the kinetic solubility is greater than 49.3 µg/mL.
The molecule `Cc1cc2nc(Cl)c(Cl)nc2cc1C` registered a solubility (kinetic) of 0.6 µg/mL (≈ 2.64 µM).
For the molecule `CN(C)c1cccc(C(=O)OCC(=O)N(C)c2ccccc2)c1`, the solubility (kinetic) was greater than 46.9 µg/mL.
For `COc1ccc(CCN(C)C2CCCN(S(C)(=O)=O)C2)cc1OC` (stereo not given) the value was greater than 53.5 µg/mL; for `CC(C)[C@H](NC(=O)c1ccccc1)C(=O)OCC(=O)c1c(N)n(C)c(=O)n(C)c1=O`, greater than 62.5 µg/mL; for `Cl.NC(=S)NC(c1ccccc1)c1ccncc1` (stereo not given), 39.5 µg/mL.
`O=S(=O)(NCCC1CC1(Cl)Cl)c1ccccc1` (stereo not given) had a kinetic solubility of 39.8 µg/mL (≈ 135 µM).
For `CCc1ccc(N2C(=O)CC(N3CCN(c4ccccn4)CC3)C2=O)cc1` (stereo not given) the value was greater than 54.7 µg/mL; for `COc1ccc(CN(C)CC(=O)NC(=O)NC2CCCCC2)cc1`, greater than 50 µg/mL; for `O=C(NCCN1CCCCC1)c1cc(Cl)ccc1Cl`, 39.8 µg/mL (≈ 132 µM).
In the case of `O=C(C1CCN(S(=O)(=O)c2ccc(Cl)cc2)CC1)N1CCCC1`, the solubility (kinetic) is 35.9 µg/mL (≈ 101 µM).
Take `NS(=O)(=O)c1ccc(NC(=O)c2ccc(S(=O)(=O)N3CCCCCC3)cc2)cc1`: the solubility (kinetic) is 6.3 µg/mL (≈ 14.4 µM).
The same measure for `COc1ccccc1-c1nnc(SCC(=O)NC2CCCCC2)n1N`: greater than 54.2 µg/mL; for `S=C(NCCCc1ccccc1)Nc1ccccc1`: 31.9 µg/mL (≈ 118 µM); for `CCOc1ncccc1C(=O)OCC(=O)c1ccc(C)c(C)c1`: 17 µg/mL (≈ 54.3 µM).
As to `Cc1ccc(S(=O)(=O)N2CCN(C(=O)Cn3c(=O)cnc4ccccc43)CC2)c(C)c1`, the kinetic solubility was greater than 66.1 µg/mL.
The molecule `Oc1cccc2ccc(/C=C/c3ccccc3Br)nc12` displayed a kinetic solubility of less than 0.7 µg/mL.
As for `CCCNC(=O)CSc1nccn1Cc1ccco1`, the solubility (kinetic) is greater than 41.9 µg/mL.
For `CCc1ccc(OCC2Cn3c(nc4c3c(=O)[nH]c(=O)n4C)O2)cc1` (stereo not given) the value was 3.8 µg/mL (≈ 11.1 µM).
The molecule `O=[N+]([O-])c1ccc(NS(=O)(=O)N2CCOCC2)cc1` gave a solubility (kinetic) greater than 43.1 µg/mL.
Take `N#CCCN(C(=O)COC(=O)/C=C/c1cccs1)c1ccccc1`: the kinetic solubility was found to be 9.9 µg/mL (≈ 29.1 µM).
`O=C1/C(=C/c2cccs2)SC(=S)N1C1CCS(=O)(=O)C1` (stereo not given) showed a solubility (kinetic) of less than 0.7 µg/mL.
On to `Cc1ccc(C)c(OCC(=O)O/N=C(\N)c2cccnc2)c1`, for which the kinetic solubility came to 11.2 µg/mL (≈ 37.4 µM).
In the case of `CCN1CCN(C(=O)Cc2ccc(C)cc2)CC1`, the solubility (kinetic) was greater than 37 µg/mL.
`COc1ccc(S(=O)(=O)N(C)CC(=O)NC2CC2)cc1OC` came in with a solubility (kinetic) greater than 49.3 µg/mL.
The molecule `CN1C(C(=O)Nc2ccccn2)=C(O)c2sc(Cl)cc2S1(=O)=O` came in with a solubility (kinetic) of 15.5 µg/mL (≈ 41.7 µM).
In turn, `CCOC(=O)C(=O)N(CC)C1CCS(=O)(=O)C1` (stereo not given) had a kinetic solubility greater than 39.5 µg/mL.
With `Cn1ccnc1SCC(=O)c1c(N)n(C)c(=O)n(C)c1=O`, the kinetic solubility was 41.5 µg/mL (≈ 134 µM).
In turn, `COc1cc(/C=C(\NC(C)=O)C(=O)O)cc(OC)c1OC` displayed a solubility (kinetic) greater than 44.3 µg/mL.
Molecule `NC(=O)NCC(c1ccccc1)C1CCCCC1` (stereo not given) yielded a kinetic solubility of 33.4 µg/mL (≈ 136 µM).
The same measure for `O=C(NCC1CCCO1)c1cc(-c2ccc(F)cc2)no1` (stereo not given): greater than 43.5 µg/mL; for `O=C1COc2ccc(S(=O)(=O)N3CCCC3)cc2N1`: greater than 42.3 µg/mL; for `CCc1ccc(S(=O)(=O)Nc2ccc(Br)cn2)cc1`: 18.1 µg/mL (≈ 53 µM).
The same measure for `CN1CC(=O)N(CC(=O)Nc2cccc3ccccc23)C1=O`: greater than 44.6 µg/mL; for `O=C1NCCN1Cc1ccc(Cl)cc1`: 26.3 µg/mL (≈ 125 µM); for `COc1ccc(C(=O)CN2C(=O)NC3(CCc4ccccc43)C2=O)cc1` (stereo not given): 25.3 µg/mL (≈ 72.2 µM).
In turn, `Cc1onc(-c2ccccc2Cl)c1C(=O)N1CC(C)CC(C)C1` (stereo not given) yielded a kinetic solubility greater than 49.9 µg/mL.
The molecule `Cc1cc(C(=O)Nc2nccs2)c2cc(F)ccc2n1` returned a solubility (kinetic) of 3.1 µg/mL (≈ 10.8 µM).
`O=S(=O)(Nc1cccc(-c2nc3cccnc3s2)c1)c1cccs1` registered a solubility (kinetic) of 0.9 µg/mL (≈ 2.41 µM).
The same measure for `O=C(CN1C(=O)NC2(CCOc3ccccc32)C1=O)c1cccs1` (stereo not given): greater than 51.4 µg/mL.
In turn, `CC(Sc1ncccn1)C(=O)N1CCc2ccccc21` (stereo not given) had a kinetic solubility of 33.3 µg/mL (≈ 117 µM).
`Cn1c(=O)c2c([nH]c(=O)n2C)n(Cc2ccccc2)c1=O` displayed a kinetic solubility greater than 42.9 µg/mL.
`CN(CC(=O)O)S(=O)(=O)c1ccc2[nH]c(=O)c(=O)[nH]c2c1` displayed a solubility (kinetic) greater than 47 µg/mL.
For the molecule `CN1C(=O)c2ccc(C(=O)Nc3cccnc3)cc2C1=O`, the kinetic solubility is greater than 42.2 µg/mL.
In the case of `O=C(c1cc2cc(Cl)ccc2[nH]1)N1CCCCC1`, the solubility (kinetic) stood at 2 µg/mL (≈ 7.61 µM).
`COc1ccccc1OCCNC(=O)c1ccc(C)o1` displayed a kinetic solubility greater than 41.3 µg/mL.
`O=C(CSC(=S)N1CCCCC1)c1c(F)cccc1F` displayed a solubility (kinetic) of 4 µg/mL (≈ 12.7 µM).
For `N/C(=N\OC(=O)c1ccc(Br)o1)c1cccnc1`, the kinetic solubility is 39.1 µg/mL (≈ 126 µM).
As to `COc1ccc(N2C(=O)C(F)(F)C2c2cccc(F)c2)cc1` (stereo not given), the kinetic solubility is less than 0.7 µg/mL.
In turn, `CN(C)CCn1cnc2ccccc21.Cl` gave a solubility (kinetic) greater than 39.3 µg/mL.
The same measure for `CS(=O)(=O)c1ccccc1C(=O)Nc1cccc2ncccc12`: 35.9 µg/mL (≈ 110 µM); for `CSc1ncccc1C(=O)OCC(=O)NC1CC1`: greater than 39.9 µg/mL.
For `Cc1ccc(Sc2ncccc2NC(=O)c2ccccc2Cl)cc1` the value was 2 µg/mL (≈ 5.64 µM); for `CCN(Cc1ccccc1)C(=O)CSc1n[nH]c(N)n1`, greater than 43.7 µg/mL; for `Cc1ccc(OCC(=O)NC2CC(C)(C)NC(C)(C)C2)c(C)c1`, greater than 47.8 µg/mL.
For the molecule `COc1ccccc1C1NC(=O)NC(C)=C1C(=O)OC1CCC(C)CC1` (stereo not given), the solubility (kinetic) was less than 0.4 µg/mL.
Take `O=C(COC(=O)c1ccccc1O)Nc1ncc(Cl)cc1Cl`: the solubility (kinetic) was determined as 23.5 µg/mL (≈ 68.9 µM).
Molecule `COCC(C)n1c(SCC(=O)N2CCOCC2)nc2ccccc2c1=O` (stereo not given) displayed a kinetic solubility greater than 56.6 µg/mL.
For `O=C(Nc1ccccc1O)c1ccc(C(=O)c2ccccc2)o1`, the solubility (kinetic) is less than 0.7 µg/mL.
For `CCOC(=O)C1=C(N)Oc2cc(O)ccc2C1c1ccccc1` (stereo not given) the value was less than 0.7 µg/mL; for `O=C(COc1ccccc1F)Nc1ccc2c(c1)OCCO2`, 14.1 µg/mL (≈ 46.5 µM); for `Nc1nnc(SCC(=O)OCC(=O)c2ccccc2)s1`, greater than 46.4 µg/mL.
`O=C1CC(C(=O)N2CCc3ccccc32)CN1c1ccccc1` (stereo not given): the kinetic solubility stood at 9.2 µg/mL (≈ 30 µM).
Turning to `Cc1[nH]c2ccc(C(=O)NCCCN3CCCCC3)cc2c1C`, the kinetic solubility is greater than 47 µg/mL.
In the case of `N/C(=N\OC(=O)c1cccnc1)c1ccccc1Cl`, the kinetic solubility was found to be 38.9 µg/mL (≈ 141 µM).
In turn, `CC(C)N(C(=O)COC(=O)c1ccc(Cl)nc1)C(C)C` showed a solubility (kinetic) of 30.7 µg/mL (≈ 103 µM).
The same measure for `Cc1cc(NC(=O)COC(=O)c2cccc(O)c2)no1`: greater than 41.4 µg/mL; for `C/C(=N\O)c1ccc2c(c1)OCCO2`: greater than 29 µg/mL; for `N#CC1=C(N)Oc2cc(N)ccc2C1c1ccccc1Cl` (stereo not given): 32.9 µg/mL (≈ 110 µM).
For `COc1ccc(NC(=O)Cc2ccc(Cl)c(Cl)c2)cn1`, the kinetic solubility amounted to 8.9 µg/mL (≈ 28.6 µM).
`O=C(CNC(=O)c1cccnc1)N/N=C/c1ccc(O)cc1O`: the kinetic solubility was greater than 47.1 µg/mL.
On to `COc1ccc2cc(C(C)C(=O)NC3CCC(O)CC3)ccc2c1` (stereo not given), for which the solubility (kinetic) was determined as 25.3 µg/mL (≈ 77.3 µM).
For `CNC(=O)/C(C#N)=C/c1ccc(OCCOc2ccccc2)cc1` the value was 2.3 µg/mL (≈ 7.13 µM).
Regarding `O=C(c1ccccc1)c1c[nH]c2ccccc12`, the solubility (kinetic) is 1.9 µg/mL (≈ 8.59 µM).
The molecule `Cc1ccccc1S(=O)(=O)N1CCN(C)CC1` returned a kinetic solubility greater than 38.2 µg/mL.

Usually solubility (kinetic) stands for solubility judged after dilution from a stock solution rather than from solid.

Values taken from PubChem BioAssay AID1996.
